Measurements from patent publication US10428082B2, “Triazole derivatives of melampomagnolide B and methods of use thereof” (BioVentures, LLC, priority 2016, dated 2019).

Legend:
[1] = system: T-47D; assay: NCI 60 growth inhibition; format: cell-based, human; conditions: Homo sapiens, T47D, Breast Cancer, Table 2
Experimental: (§1) The above triazole derivatives of melampomagnolide B were evaluated for growth inhibitory properties against an NCI panel of 60 human cancer cell lines derived from nine human cancer cell types, grouped into disease sub-panels that represent leukemia, lung, colon, central nervous system (CNS), melanoma, renal, ovary, breast, and prostate cancer cells. Growth inhibitory (GI50) effects were measured as a function of the variation of optical density as a percentage of control.

[2] = system: M14; assay: NCI 60 growth inhibition; format: cell-based, human; conditions: Homo sapiens; M14, Melanoma, Table 2
Experimental: as §1

[3] = system: ACHN; assay: NCI 60 growth inhibition; format: cell-based, human; conditions: Homo sapiens, Renal Cancer, Table 2
Experimental: as §1

[4] = system: CAKI-1; assay: NCI 60 growth inhibition; format: cell-based, human; conditions: Homo sapiens; CAKI-1, Renal Cancer, Table 2
Experimental: as §1

[5] = system: NCI-H23; assay: NCI 60 growth inhibition; format: cell-based, human; conditions: Homo sapiens; NCI-H23, Non-Small Cell Lung Cancer, Table 2
Experimental: as §1

[6] = system: MALME-3M; assay: NCI 60 growth inhibition; format: cell-based, human; conditions: Homo sapiens, Melanoma, Table 2
Experimental: as §1

[7] = system: NCI-H522; assay: NCI 60 growth inhibition; format: cell-based, human; conditions: Homo sapiens; NCI-H522, Non-Small Cell Lung Cancer, Table 2
Experimental: as §1

[8] = system: MDA-MB-435; assay: NCI 60 growth inhibition; format: cell-based, human; conditions: Homo sapiens; MDA-MB-435, Melanoma, Table 2
Experimental: as §1

[9] = system: MCF7; assay: NCI 60 growth inhibition; format: cell-based, human; conditions: Homo sapiens; MCF7, Breast Cancer, Table 2
Experimental: as §1

[10] = system: SK-MEL-5; assay: NCI 60 growth inhibition; format: cell-based, human; conditions: Homo sapiens; SK-MEL-5, Melanoma, Table 2
Experimental: as §1

[11] = system: HCT-116; assay: NCI 60 growth inhibition; format: cell-based, human; conditions: Homo sapiens; HCT-116, Colon Cancer, Table 2
Experimental: as §1

[12] = system: SK-MEL-2; assay: NCI 60 growth inhibition; format: cell-based, human; conditions: Homo sapiens; SK-MEL-2, Melanoma, Table 2
Experimental: as §1

[13] = system: OVCAR-5; assay: NCI 60 growth inhibition; format: cell-based, human; conditions: Homo sapiens; OVCAR-5, Ovarian Cancer, Table 2
Experimental: as §1

[14] = system: SW-620; assay: NCI 60 growth inhibition; format: cell-based, human; conditions: Homo sapiens; SW-620, Colon Cancer, Table 2
Experimental: as §1

[15] = system: SNB-19; assay: NCI 60 growth inhibition; format: cell-based, human; conditions: Homo sapiens; SNB-19, CNS Cancer, Table 2
Experimental: as §1

[16] = system: SN12C; assay: NCI 60 growth inhibition; format: cell-based, human; conditions: Homo sapiens, Renal Cancer, Table 2
Experimental: as §1

[17] = system: HL-60(TB); assay: NCI 60 growth inhibition; format: cell-based, human; conditions: Homo sapiens; HL-60(TB), Leukemia, Table 2
Experimental: as §1

[18] = system: LOX IMVI; assay: NCI 60 growth inhibition; format: cell-based, human; conditions: Homo sapiens, Melanoma, Table 2
Experimental: as §1

[19] = system: UACC-62; assay: NCI 60 growth inhibition; format: cell-based, human; conditions: Homo sapiens; UACC-62, Melanoma, Table 2
Experimental: as §1

[20] = system: NCI-H322M; assay: NCI 60 growth inhibition; format: cell-based, human; conditions: Homo sapiens, Non-Small Cell Lung Cancer, Table 2
Experimental: as §1

[21] = system: SK-MEL-28; assay: NCI 60 growth inhibition; format: cell-based, human; conditions: Homo sapiens; SK-MEL-28, Melanoma, Table 2
Experimental: as §1

[22] = system: HT29; assay: NCI 60 growth inhibition; format: cell-based, human; conditions: Homo sapiens; HT-29, Colon Cancer, Table 2
Experimental: as §1

[23] = system: CCRF-CEM; assay: NCI 60 growth inhibition; format: cell-based, human; conditions: Homo sapiens, Leukemia, Table 2
Experimental: as §1

[24] = system: SF-539; assay: NCI 60 growth inhibition; format: cell-based, human; conditions: Homo sapiens; SF-539, CNS Cancer, Table 2
Experimental: as §1

[25] = system: RXF 393; assay: NCI 60 growth inhibition; format: cell-based, human; conditions: Homo sapiens, RXF 393, RXF 393, Renal Cancer, Table 2
Experimental: as §1

[26] = system: BT-549; assay: NCI 60 growth inhibition; format: cell-based, human; conditions: Homo sapiens; BT-549, Breast Cancer, Table 2
Experimental: as §1

[27] = system: COLO 205; assay: NCI 60 growth inhibition; format: cell-based, human; conditions: Homo sapiens; COLO 205, Colon Cancer, Table 2
Experimental: as §1

[28] = system: MOLT-4; assay: NCI 60 growth inhibition; format: cell-based, human; conditions: Homo sapiens; MOLT-4, Leukemia, Table 2
Experimental: as §1

[29] = system: K-562; assay: NCI 60 growth inhibition; format: cell-based, human; conditions: Homo sapiens, K562; K-562, Leukemia, Table 2
Experimental: as §1

[30] = system: A549/ATCC; assay: NCI 60 growth inhibition; format: cell-based, human; conditions: Homo sapiens, Non-Small Cell Lung Cancer, Table 2
Experimental: as §1

[31] = system: PC-3; assay: NCI 60 growth inhibition; format: cell-based, human; conditions: Homo sapiens; PC-3, Prostate Cancer, Table 2
Experimental: as §1

[32] = system: IGROV1; assay: NCI 60 growth inhibition; format: cell-based, human; conditions: Homo sapiens, IGROV-1; IGROV1, Ovarian Cancer, Table 2
Experimental: as §1

[33] = system: UACC-257; assay: NCI 60 growth inhibition; format: cell-based, human; conditions: Homo sapiens; UACC-257, Melanoma, Table 2
Experimental: as §1

[34] = system: HCC-2998; assay: NCI 60 growth inhibition; format: cell-based, human; conditions: Homo sapiens; HCC-2998, Colon Cancer, Table 2
Experimental: as §1

[35] = system: MDA-MB-468; assay: NCI 60 growth inhibition; format: cell-based, human; conditions: Homo sapiens; MDA-MB-468, Breast Cancer, Table 2
Experimental: as §1

[36] = system: NCI panel of 60 human cancer cell lines; assay: NCI 60 growth inhibition, ranges over groups of cell lines; format: cell-based; conditions: 60 cell, several cell lines in the NCI 60 cell panel, read-out: GI50
Experimental: as §1

[37] = system: M9 ENL1 cell line; assay: Anti-leukemic activity, Annexin V/7-AAD flow cytometry; format: cell-based; conditions: M9-ENL1, 24 h, 24 h of drug exposure; read-out: M9ENL1 (EC50)
Method in brief: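 Cells were exposed to drug for 24 h. Apoptotic populations were measured by flow cytometry with Annexin V/7-AAD labelling. Primary AML cells were from patients.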

Row | SMILES | GI50 [1] | GI50 [2] | GI50 [3] | GI50 [4] | GI50 [5] | GI50 [6] | GI50 [7] | GI50 [8] | GI50 [9] | GI50 [10] | GI50 [11] | GI50 [12] | GI50 [13] | GI50 [14] | GI50 [15] | GI50 [16] | GI50 [17] | GI50 [18] | GI50 [19] | GI50 [20] | also measured
1 | C=C1C(=O)O[C@H]2[C@H]1CC/C(Cn1cc(-c3ccccc3)nn1)=C\CC[C@@]1(C)O[C@@H]21 [JVM 3-74, (1aR,7aS,10aS,10bS,E)-1a-Methyl-8-methylene-5-((4-phenyl-1H-1,2,3-triazol-1-yl)methyl)-2,3,6,7,7a,8,10a,10b-octahydrooxireno[2′,3′:9,10]cyclodeca[1,2-b]furan-9(1aH)-one] | 1300 nM | 1780 nM | 940 nM | 1280 nM | 5380 nM | 1170 nM | 810 nM | 2370 nM | 1080 nM | 7320 nM | 1170 nM | 5500 nM | 5700 nM | 1500 nM | 7870 nM | 4500 nM | 1490 nM | 800 nM | 1870 nM | 7790 nM | GI50 [21]: 1060 nM; GI50 [22]: 1790 nM; GI50 [23]: 990 nM; GI50 [24]: 2010 nM; GI50 [25]: 1550 nM; GI50 [26]: 2650 nM; GI50 [27]: 1080 nM; GI50 [28]: 1290 nM; GI50 [29]: 1760 nM; GI50 [30]: 5880 nM; GI50 [31]: 5650 nM; GI50 [32]: 6950 nM; GI50 [33]: 3780 nM; GI50 [34]: 6160 nM; GI50 [35]: 950 nM; GI50 [36]: 200 to 990 nM; EC50 [37]: 1900 nM
2 | C=C1C(=O)O[C@H]2[C@H]1CC/C(Cn1cc(-c3ccc(OC)cc3)nn1)=C\CC[C@@]1(C)O[C@@H]21 [JVM 4-24, (1aR,7aS,10aS,10bS,E)-5((4-(4-Methoxyphenyl)-1H-1,2,3-triazol-1-yl)methyl)-1a-methyl-8-methylene-2,3,6,7,7a,8,10a,10b-octahydrooxireno[2′,3′:9,10]cyclodeca[1,2-b]furan-9(1aH)-one] | 1430 nM | 1300 nM | 290 nM | 1030 nM | 2060 nM | 1670 nM | 380 nM | 1140 nM | 420 nM | 2100 nM | 480 nM | 1950 nM | 1710 nM | 490 nM | 6920 nM | 1960 nM | 1170 nM | 1160 nM | 1350 nM | 10700 nM | GI50 [21]: 820 nM; GI50 [22]: 1230 nM; GI50 [23]: 290 nM; GI50 [24]: 340 nM; GI50 [25]: 700 nM; GI50 [26]: 1310 nM; GI50 [27]: 500 nM; GI50 [28]: 1130 nM; GI50 [29]: 1300 nM; GI50 [30]: 10900 nM; GI50 [31]: 9350 nM; GI50 [32]: 1350 nM; GI50 [33]: 1780 nM; GI50 [34]: 1980 nM; GI50 [35]: 890 nM; GI50 [36]: 200 to 990 nM; EC50 [37]: 1400 nM
